Where a name gives a salt, the structure may show the parent alone.

Chain of Bek (P21802 431-767 limits assumed): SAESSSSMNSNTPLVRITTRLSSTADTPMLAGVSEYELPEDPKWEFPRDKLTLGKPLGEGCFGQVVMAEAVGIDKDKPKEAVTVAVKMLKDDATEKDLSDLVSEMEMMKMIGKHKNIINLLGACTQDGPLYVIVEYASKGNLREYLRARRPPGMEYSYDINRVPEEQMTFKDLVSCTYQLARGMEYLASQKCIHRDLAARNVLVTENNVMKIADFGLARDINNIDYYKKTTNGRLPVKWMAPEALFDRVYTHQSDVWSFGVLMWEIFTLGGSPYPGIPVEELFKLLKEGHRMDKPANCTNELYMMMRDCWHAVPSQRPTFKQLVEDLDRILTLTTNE

The test addresses Bek (Homo sapiens, UniProt P21802). Description: Inhibitory activity against Bek-autophosphorylation using ELISA method in OCUM-2MD3 cells. Format: cell-based. The settings on record: 1 hr with compound, read-out: IC50 (concentration necessary for inhibiting 50% of Bek-phosphorylation). Put shortly:
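OCUM-2MD3 human scirrhous gastric cancer cells in 0.1% FCS were exposed to compound for 1 hr at 37° C, then lysed. Phospho-tyrosine proteins were captured with anti-phosphotyrosine antibody, probed with anti-Bek antibody and peroxidase read-out (A450). Positive control (1000 nM) set 0%, untreated 100%; IC50 from multi-level dilutions.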
Background: ELISA stands for enzyme-linked immunosorbent assay.
`COc1cc2nccc(Oc3ccc(Nc4ccc(C(C)(C)C)cc4)cc3)c2cc1OCCN1CCOCC1` [Compound 212, (4-Tert-butyl-phenyl)-{4-[7-methoxy-6-(2-morpholin-4-yl-ethoxy)-quinolin-4-yloxy]-phenyl}-amine]: the IC50 was 137 nM.
The figure for `COc1cc2c(Oc3ccc(Nc4ccc(C(C)(C)C)cc4)cc3)ccnc2cc1OCCCN(C)C` [Compound 46, N1-[4-(Tert-butyl)phenyl]-4-({7-[3-(dimethylamino)propoxy]-6-methoxy-4-quinolyl}oxy)aniline] is 230 nM.
The figure for `COCCN1CCC(COc2cc3nccc(Oc4ccc(NC(=O)NCCC(C)(C)C)c(Cl)c4)c3cc2OC)CC1` [Compound 171, 1-(2-Chloro-4-{6-methoxy-7-[1-(2-methoxy-ethyl)-piperidin-4-ylmethoxy]-quinolin-4-yloxy}-phenyl)-3-(3,3-dimethyl-butyl)-urea] is 32.4 nM; for `COc1cc2c(Oc3ccc(Nc4ccc(C(C)(C)C)cc4)cc3)ccnc2cc1OCCCN1CCC(CCO)CC1` [Compound 218, 2-[1-(3-{4-[4-(4-Tert-butyl-phenylamino)-phenoxy]-6-methoxy-quinolin-7-yloxy}-propyl)-piperidin-4-yl]-ethanol] it is 96 nM; for `COc1cc2nccc(Oc3ccc(NC(=O)NCCC(C)(C)C)cc3)c2cc1OCCCCN1CCOCC1` [Compound 227, 1-(3,3-Dimethyl-butyl)-3-{4-[7-methoxy-6-(4-morpholin-4-yl-butoxy)-quinolin-4-yloxy]-phenyl}-urea] it is 23.9 nM.
The figure for `COc1cc2nccc(Oc3ccc(Nc4ccc(C(C)(C)C)cc4)cc3)c2cc1OCCN(C)CCO` [Compound 357, 2-[(2-{4-[4-(4-Tert-butyl-phenylamino)-phenoxy]-7-methoxy-quinolin-6-yloxy}-ethyl)-methyl-amino]-ethanol] is 213 nM; for `COc1cc2c(Oc3ccc(NC(=O)NCCC(C)(C)C)cc3Cl)ccnc2cc1OCCN1CCC(CO)CC1` [Compound 312, 1-(3-Chloro-4-{7-[2-(4-hydroxymethyl-piperidin-1-yl)-ethoxy]-6-methoxy-quinolin-4-yloxy}-phenyl)-3-(3,3-dimethyl-butyl)-urea] it is 20.5 nM; for `COc1cc2c(Oc3ccc(NC(=O)NCCC(C)(C)C)c(Cl)c3)ccnc2cc1OCCCCN` [Compound 175, 1-{4-[7-(4-Amino-butoxy)-6-methoxy-quinolin-4-yloxy]-2-chloro-phenyl}-3-(3,3-dimethyl-butyl)-urea] it is 21.7 nM.
As for `COc1cc2nccc(Oc3ccc(NC(=O)NCCC(C)(C)C)c(C)c3C)c2cc1OC` [Compound 141, 1-[4-(6,7-Dimethoxy-quinolin-4-yloxy)-2,3-dimethyl-phenyl]-3-(3,3-dimethyl-butyl)-urea], the IC50 was 58.6 nM.
In the case of `COc1cc2c(Oc3ccc(Nc4ccc(C(C)(C)C)cc4)cc3)ccnc2cc1OCCCN1CCC(N2CCCC2)CC1` [Compound 237, (4-Tert-butyl-phenyl)-(4-{6-methoxy-7-[3-(4-pyrrolidin-1-yl-piperidin-1-yl)-propoxy]-quinolin-4-yloxy}-phenyl)-amine] it was 207 nM.
The figure for `CCC(CO)(CO)NCCOc1cc2nccc(Oc3ccc(Nc4ccc(C(C)(C)C)cc4)cc3)c2cc1OC` [Compound 351, 2-(2-{4-[4-(4-Tert-butyl-phenylamino)-phenoxy]-6-methoxy-quinolin-7-yloxy}-ethylamino)-2-ethyl-propan-1,3-diol] is 232 nM.
In the case of `COc1cc2c(Oc3ccc(Nc4ccc(C(C)(C)C)cc4)cc3)ccnc2cc1OCCNC1(CO)CCCC1` [Compound 350, [1-(2-{4-[4-(4-Tert-butyl-phenylamino)-phenoxy]-6-methoxy-quinolin-7-yloxy}-ethylamino)-cyclopenthyl]-methanol] it was 334 nM.
In the case of `COc1cc2c(Oc3ccc(NC(=O)NCCC(C)(C)C)cc3F)ccnc2cc1OCCN1CCCCC1` [Compound 129, 1-(3,3-Dimethyl-butyl)-3-{3-fluoro-4-[6-methoxy-7-(2-piperidin-1-yl-ethoxy)-quinolin-4-yloxy]-phenyl}-urea], the IC50 was found to be 48.1 nM.
The figure for `COc1cc2c(Oc3ccc(NC(=O)NCCC(C)(C)C)cc3Cl)ccnc2cc1OCCCN1CCC(O)CC1` [Compound 338, 1-(3-Chloro-4-{7-[3-(4-hydroxy-piperidin-1-yl)-propoxy]-6-methoxy-quinolin-4-yloxy}-phenyl)-3-(3,3-dimethyl-butyl)-urea] is 16.6 nM.
Turning to `COc1cc2c(Oc3ccc(NC(=O)NCCC(C)(C)C)cc3)ccnc2cc1OCCCN1CCOCC1` [Compound 155, 1-(3,3-Dimethyl-butyl)-3-{4-[6-methoxy-7-(3-morpholin-4-yl-propoxy)-quinolin-4-yloxy]-phenyl}-urea hydrochloride], the IC50 turned out to be 28.7 nM.
For `COc1cc2nccc(Oc3ccc(N(C)c4ccc(C(C)(C)C)cc4)cc3)c2cc1OC` [Compound 20, (4-Tert-butylphenyl)-[4-(6.7-dimethoxyquinolin-4-yloxy)phenyl]-methylamine], the IC50 was determined as 325 nM.
The figure for `COc1cc2c(Oc3ccc(NC(=O)NCCC(C)(C)C)c(Cl)c3)ccnc2cc1OC[C@@H](O)CN1CCOCC1` [Compound 197, 1-{2-Chloro-4-[7-(2-hydroxy-3-morpholin-4-yl-propoxy)-6-methoxy-quinolin-4-yloxy]-phenyl}-3-(3,3-dimethyl-butyl)-urea] is below 10 nM; for `COc1cc2c(Oc3ccc(NC(=O)NCCC(C)(C)C)cc3)ccnc2cc1OCCCCN1CCN(C)CC1` [Compound 159, 1-(3,3-Dimethyl-butyl)-3-(4-{6-methoxy-7-[4-(4-methyl-piperazin-1-yl)-butoxy]-quinolin-4-yloxy}-phenyl)-urea hydrochloride] it is 26.2 nM; for `COc1cc2c(Oc3ccc(NC(=O)NCCC(C)(C)C)c(Cl)c3)ccnc2cc1OCCCN1CCOCC1` [Compound 182, 1-{2-Chloro-4-[6-methoxy-7-(3-morpholin-4-yl-propoxy)-quinolin-4-yloxy]-phenyl}-3-(3,3-dimethyl-butyl)-urea] it is 9.5 nM.
`COc1cc2c(Oc3ccc(NC(=O)NCCC(C)(C)C)cc3Cl)ccnc2cc1OCCN1CC(C)OC(C)C1` (centres unmarked) [Compound 127, 1-(3-Chloro-4-{7-[2-(2,6-dimethyl-morpholin-4-yl)-ethoxy]-6-methoxy-quinolin-4-yloxy}-phenyl)-3-(3,3-dimethyl-butyl)-urea]: the IC50 turned out to be 9.4 nM.
In the case of `COc1cc2c(Oc3ccc(Nc4ccc(C(C)(C)C)cc4)cc3)ccnc2cc1OCCN1CC(C)OC(C)C1` (centres unmarked) [Compound 238, (4-Tert-butyl-phenyl)-(4-{7-[2-(2,6-dimethyl-morpholin-4-yl)-ethoxy]-6-methoxy-quinolin-4-yloxy}-phenyl)-amine] it was 47.2 nM; in that of `COc1cc2c(Oc3ccc(NC(=O)NCCC(C)(C)C)c(Cl)c3)ccnc2cc1OCCCN1CCCCCC1` [Compound 181, 1-{4-[7-(3-Azepan-1-yl-propoxy)-6-methoxy-quinolin-4-yloxy]-2-chloro-phenyl}-3-(3,3-dimethyl-butyl)-urea], 26.2 nM; in that of `COc1cc2c(Oc3ccc(NC(=O)NCCC(C)(C)C)c(F)c3)ccnc2cc1OCCCN1CC(C)OC(C)C1` (centres unmarked) [Compound 325, 1-(3,3-Dimethyl-butyl)-3-(4-{7-[3-(2,6-dimethyl-morpholin-4-yl)-propoxy]-6-methoxy-quinolin-4-yloxy}-2-fluoro-phenyl)-urea], 34.2 nM.
In the case of `COc1cc2nccc(Oc3ccc(NC(=O)NCCC(C)(C)C)c(F)c3)c2cc1OC` [Compound 111, 1-[4-(6,7-Dimethoxy-quinolin-4-yloxy)-2-fluoro-phenyl]-3-(3,3-dimethyl-butyl)-urea] it was below 10 nM; in that of `COc1cc2c(Oc3ccc(NC(=O)NCCC(C)(C)C)c(Cl)c3)ccnc2cc1OCCCN(C)CCO` [Compound 178, 1-[2-Chloro-4-(7-{3-[(2-hydroxy-ethyl)-methyl-amino]-propoxy}-6-methoxy-quinolin-4-yloxy)-phenyl]-3-(3,3-dimethyl-butyl)-urea], below 10 nM; in that of `COc1cc2c(Oc3ccc(NC(=O)NCCC(C)(C)C)cc3)ccnc2cc1OCCCN1CCC[C@H]1CO` [Compound 263, 1-(3,3-Dimethyl-butyl)-3-(4-{7-[3-(2-hydroxymethyl-pyrrolidin-1-yl)-propoxy]-6-methoxy-quinolin-4-yloxy}-phenyl)-urea], below 10 nM.
In the case of `COCC1CCN(CCCOc2cc3nccc(Oc4ccc(NC(=O)NCCC(C)(C)C)cc4)c3cc2OC)CC1` [Compound 282, 1-(3,3-Dimethyl-butyl)-3-(4-{6-methoxy-7-[3-(4-methoxymethyl-piperidin-1-yl)-propoxy]-quinolin-4-yloxy}-phenyl)-urea] it was 31.6 nM.
On to `COc1ccc(Nc2ccc(Oc3ccnc4cc(OC)c(OC)cc34)cc2)cc1` [Compound 1, [4-(6,7-Dimethoxyquinolin-4-yloxy)phenyl]-(4-methoxyphenyl)-amine], for which the IC50 is 3930 nM.
For the molecule `COc1cc2c(Oc3ccc(NC(=O)NCCC(C)(C)C)c(Cl)c3)ccnc2cc1OCCN(CCO)CCO` [Compound 176, 1-[4-(7-{2-[Bis-(2-hydroxy-ethyl)-amino]-ethoxy}-6-methoxy-quinolin-4-yloxy)-2-chloro-phenyl]-3-(3,3-dimethyl-butyl)-urea], the IC50 is below 10 nM.
As to `COc1cc2nccc(Oc3ccc(Nc4ccc(C(C)(C)C)cc4)cc3)c2cc1OC` [Compound 5, (4-Tert-butylphenyl)-[4-(6,7-dimethoxyquinolin-4-yloxy)phenyl]amine], the IC50 came to 321 nM.
The figure for `COc1cc2nccc(Oc3ccc(NC4CCC(C(C)(C)C)CC4)cc3)c2cc1OC` (centres unmarked) [Compound 77, (4-Tert-butylcyclohexyl)-[4-(6,7-dimethoxyquinolin-4-yloxy)phenyl]amine] is 3450 nM.
`COc1cc2nccc(Oc3ccc(Nc4ccc(C(C)(C)C)cc4)cc3F)c2cc1OC` [Compound 18, (4-Tert-butylphenyl)-[4-(6,7-dimethoxyquinolin-4-yloxy)-3-fluorophenyl]amine]: the IC50 was 155 nM.
